Measurements reported in patent publication US9617289B2, “RSV antiviral compounds” (JANSSEN R&D IRELAND, priority 2012, dated 2017).
pEC50: −log10 of the molar value. Structures can show the parent of a compound that is named as a salt. Where two headings read alike, the source gives them in different places.

Test system: rgRSV224 virus
Test: Antiviral activity: inhibition of rgRSV224 (GFP-expressing RSV) replication in HeLa cells
Type: cell-based, respiratory syncytial virus
Conditions: human respiratory syncytial virus, HeLa, 72 h; for EC50: read-out: pEC50, rgRSV224 (MOI=0.02) in HeLa cells, GFP expression three days post-virus exposure (converted); for pEC50: read-out: RSV-wt_pEC50, rgRSV224 (MOI=0.02) in HeLa cells, GFP expression three days post-virus exposure
Description: Black 96-well clear-bottom microtiter plates (Corning, Amsterdam, The Netherlands) were filled in duplicate using a customized robot system with serial 4-fold dilutions of compound in a final volume of 50 μl culture medium [RPMI medium without phenol red, 10% FBS, 0.04% gentamycin (50 mg/ml) and 0.5% DMSO]. Then, 100 μl of a HeLa cell suspension (5×10^4 cells/ml) in culture medium was added to each well followed by the addition of 50 μl rgRSV224 (MOI=0.02) virus in culture medium using a multidrop dispenser (Thermo Scientific, Erembodegem, Belgium). rgRSV224 virus is an engineered virus that includes an additional GFP gene (Hallak et al, 2000) and was in-licensed from the NIH (Bethesda, Md., USA). Medium, virus- and mock-infected controls were included in each test. Cells were incubated at 37° C. in a 5% CO2 atmosphere. Three days post-virus exposure, viral replication was quantified by measuring GFP expression in the cells by a MSM laser microscope (Tibotec, Beerse, Belgium). The EC50 was defined as the 50% inhibitory concentration for GFP expression. In parallel, compounds were incubated for three days in a set of white 96-well microtitier plates (Corning) and the cytotoxicity of compounds in HeLa cells was determined by measuring the ATP content of the cells using the ATPlite kit (PerkinElmer, Zaventem, Belgium) according to the manufacturer's instructions. The CC50 was defined as the 50% concentration for cytotoxicity. SI is calculated as CC50/EC50.

Row | SMILES | EC50 [nM] | pEC50
1 | CC(C)(C)OC(=O)N1CCC2(CC1)C(=O)N(Cc1nc3cc(Cl)ccc3n1CCCS(C)(=O)=O)c1cnccc12 [Compound 14, tert-butyl 1′-((5-chloro-1-(3-(methylsulfonyl)propyl)-1H-benzo[d]imidazol-2-yl)methyl)-2′-oxo-1′,2′-dihydrospiro-[piperidine-4,3′-pyrrolo[2,3-c]pyridine]-1-carboxylate] | < 0.158 | –
2 | N#CCCCn1c(CN2C(=O)C3(CCNCC3)c3ccncc32)cc2cc(Cl)ccc21 [Compound 78, 4-(5-chloro-2-((2′-oxospiro[piperidine-4,3′-pyrrolo[2,3-c]-pyridin]-1′(2′H)-yl)methyl)-1H-indol-1-yl)butanenitrile hydrochloride] | 0.631 | –
3 | CC(C)(C)OC(=O)N1CCC2(CC1)C(=O)N(Cc1nc3ncccc3n1CCCC(F)(F)F)c1cnccc12 [Compound 66, tert-butyl-2′-oxo-1′-((1-(4,4,4-trifluorobutyl)-1H-imidazo-[4,5-b]pyridine-2-yl)methyl)-1′,2′-dihydrospiro[piperidine-4,3′-pyrrolo[2,3-c]pyridine]-1-carboxylate] | 3.16 | –
4 | CC(C)(C)OC(=O)N1CCC2(CC1)C(=O)N(Cc1nc3cc(Cl)ccc3n1CCCC#N)c1cnccc12 [Compound 53, tert-butyl 1′-((5-chloro-1-(3-cyanopropyl)-1H-benzo[d]-imidazol-2-yl)methyl)-2′-oxo-1′,2′-dihydrospiro[piperidine-4,3′-pyrrolo[2,3-c]pyridine]-1-carboxylate] | < 0.158 | –
5 | CS(=O)(=O)CCCn1c(CN2C(=O)C3(CCCC3)c3ccncc32)nc2cc(Cl)ccc21 [Compound 37, 1′-((5-chloro-1-(3-(methylsulfonyl)propyl)-1H-benzo[d]-imidazol-2-yl)methyl)spiro[cyclopentane-1,3′-pyrrolo[2,3-c]pyridin]-2′(1′H)-one] | 0.1 | –
6 | CS(=O)(=O)CCCn1c(CN2C(=O)C3(CCCC3)c3ccncc32)cc2cc(Cl)ccc21 [Compound 54, 1′-({5-chloro-1-[3-(methylsulfonyl)propyl]-1H-indol-2-yl}methyl)spiro [cyclopentane-1,3′-pyrrolo[2,3-c]pyridin]-2′(1′H)-one] | 1.58 | –
7 | CC(C)(O)C(=O)N1CC[C@]2(C1)C(=O)N(Cc1nc3cc(Cl)ccc3n1CCCS(C)(=O)=O)c1ccccc12 [Compound 122, (S)-1-((5-chloro-1-(3-(methylsulfonyl)propyl)-1H-benzo[d]imidazol-2-yl)methyl)-1′-(2-hydroxy-2-methylpropanoyl)spiro[indoline-3,3′-pyrrolidin]-2-one] | – | 8.08
8 | CC(C)(C)OC(=O)N1CC2(C1)C(=O)N(Cc1cc3cc(Cl)ccc3n1CCCS(C)(=O)=O)c1ccccc12 [Compound 163, tert-Butyl 1′-({5-chloro-1-[3-(methylsulfonyl)propyl]-1H-indol-2-yl}methyl)-2′-oxo-1′,2′-dihydro-1H-spiro[azetidine-3,3′-indole]-1-carboxylate] | – | 9.70
9 | CS(=O)(=O)CCCn1c(CN2C(=O)C3(CCNCC3)c3c(Cl)cccc32)nc2cc(Cl)ccc21 [Compound 26, 4-chloro-1-({5-chloro-1-[3-(methylsulfonyl)propyl]-1H-benzimidazol-2-yl}methyl)spiro[indole-3,4′-piperidin]-2(1H)-one] | 316 | –
10 | COC(=O)N[C@H]1C[C@@]2(C1)C(=O)N(Cc1nc3cc(Cl)ccc3n1CCCC#N)c1ccccc12 [Compound 136, methyl ((1r,3r)-1′-((5-chloro-1-(3-cyanopropyl)-1H-benzo[d]imidazol-2-yl)methyl)-2′-oxospiro[cyclobutane-1,3′-indolin]-3-yl)carbamate] | – | 9.61
11 | N#CCCCn1c(CN2C(=O)C3(CNC3)c3ccccc32)cc2cc(Cl)ccc21 [Compound 59, 4-{5-chloro-2-[(2′-oxospiro[azetidine-3,3′-indol]-1′(2′H )-yl)-methyl]-1H-indol-1-yl}butanenitrile] | 5.01 | –
12 | N#CCCCn1c(COC2CC3(C2)C(=O)N(Cc2nc4cc(Cl)ccc4n2CCCC#N)c2ccccc23)nc2cc(Cl)ccc21 [Compound 110, 4-(5-chloro-2-(((1S,3S)-1′-((5-chloro-1-(3-cyanopropyl)-1H-benzo[d]imidazol-2-yl)methyl)-2′-oxospiro[cyclobutane-1,3′-indoline]-3-yloxy)methyl)-1H-benzo[d]imidazol-1-yl)butanenitrile] | – | 8.84
13 | CC(C)(O)C(=O)N1CCC2(CC1)C(=O)N(Cc1cc3cc(Cl)ccc3n1CCCCF)c1cnccc12 [Compound 106, 1′-{[5-Chloro-1-(4-fluorobutyl)-1H-indol-2-yl]methyl}-1-(2-hydroxy-2-methylpropanoyl)spiro[piperidine-4,3′-pyrrolo-[2,3-c]pyridin]-2′(1′H)-one] | – | 9.62
14 | CC(=O)N1CCC2(CC1)C(=O)N(Cc1nc3cc(Cl)ccc3n1CCCS(C)(=O)=O)c1ccc(Cl)cc12 [Compound 24, 1-acetyl-5-chloro-1-((5-chloro-1-(3-(methylsulfonyl)-propyl)-1H-benzo[d]imidazol-2-yl)methyl)spiro[indoline-3,4′-piperidin]-2-one] | 7.94 | –
15 | CS(=O)(=O)CCCn1c(CN2C(=O)C3(CCOCC3)c3cnccc32)nc2cc(Cl)ccc21 [Compound 41, 1-((5-chloro-1-(3-(methylsulfonyl)propyl)-1H-benzo[d]-imidazol-2-yl)methyl)-2,3,5,6-tetrahydrospiro[pyran-4,3′-pyrrolo[3,2-c]pyridin]-2′(1′H)-one] | 45.7 | –
16 | CC(C)(O)C(=O)N1CCC2(CC1)C(=O)N(Cc1cc3cc(Cl)ccc3n1CCCC#N)c1cnccc12 [Compound 86, 4-(5-chloro-2-((1-(2-hydroxy-2-methylpropanoyl)-2′-oxospiro[piperidine-4,3′-pyrrolo[2,3-c]pyridin]-1′(2′H)-yl)methyl)-1H-indol-1-yl)butanenitrile] | < 0.158 | –
17 | CS(=O)(=O)CCCn1c(CN2C(=O)C3(CN(S(=O)(=O)c4ccc(F)cc4)C3)c3ccccc32)nc2cc(Cl)ccc21 [Compound 33, 1′-({5-chloro-1-[3-(methylsulfonyl)propyl]-1H-benzimidazol-2-yl}methyl)-1-[(4-fluorophenyl)-sulfonyl]spiro[azetidine-3,3′-indol]-2′(1′H)-one] | 0.158 | –
18 | CNC(=O)O[C@H]1C[C@@]2(C1)C(=O)N(Cc1cc3cc(Cl)ccc3n1CCCCF)c1ccccc12 [Compound 120, (1r,3r)-1′-((5-chloro-1-(4-fluorobutyl)-1H-indol-2-yl)methyl)-2′-oxospiro[cyclobutane-1,3′-indolin]-3-yl methylcarbamate] | – | 8.62
19 | O=C1N(Cc2nc3cc(Cl)ccc3n2CCCC(F)(F)F)c2ccccc2C12CCN(Cc1ccccc1)CC2 [Compound 51, 1′-benzyl-1-((5-chloro-1-(4,4,4-trifluorobutyl)-1H-benzo[d]-imidazol-2-yl)methyl)spiro[indoline-3,4′-piperidin]-2-one] | 63.1 | –
20 | CC(C)(C)OC(=O)N1CC2(C1)C(=O)N(Cc1nc3cc(Cl)ccc3n1CCCS(C)(=O)=O)c1ccccc12 [Compound 4, tert-butyl 1′-({5-chloro-1-[3-(methylsulfonyl)propyl]-1H-benzimidazol-2-yl}methyl)-2′-oxo-1′,2′-dihydro-1H-spiro[azetidine-3,3′-indole]-1-carboxylate] | 0.0794 | –
